Experimental findings from patent US20110052674A1, “ANGIOTENSIN II RECEPTOR BLOCKER DERIVATIVES” (MERCK SHARP & DOHME CORP., priority 2008, published 2011) are described below.

Data set [1] concerns isolated rabbit thoracic aorta preparations. Description: Studies on vascular tone: vasorelaxation in isolated rabbit thoracic aorta preparations. As to conditions: vasorelaxation of rabbit aortic rings precontracted with noradrenaline 1 μM, functional endothelium; for EC50: Oryctolagus cuniculus, read-out: EC50 (μM) ± sem. It counts as cell-based. As for the experimental part: The ability of ARB nitroderivatives to induce vasorelaxation in comparison to native ARBs, was tested in vitro in isolated rabbit thoracic aorta preparations (Wanstall J. C. et al., Br. J. Pharmacol., 134:463-472, 2001). Male New Zealand rabbits were anaesthetized with thiopental-Na (50 mg/kg, iv), sacrificed by exsanguinations and then the thorax was opened and the aorta dissected. Aortic ring preparations (4 mm in length) were set up in physiological salt solution (PSS) at 37° C. in small organ chambers (5 ml). The composition of PSS was (mM): NaCl 130, NaHCO3 14.9, KH2PO4 1.2, MgSO4 1.2, HEPES 10, CaCl2, ascorbic acid […] and glucose […] (95% O2/5% CO2; pH 7.4). Each ring was mounted under 2 g passive tension. Isometric tension was recorded with a Grass transducer (Grass FT03) attached to a BIOPAC MP150 System. Preparations were allowed to equilibrate for 1 h, and then contracted submaximally with noradrenaline (NA, 1 μM) and, when the contraction was stable, acetylcholine (ACh, 10 μM) was added. A relaxant response to ACh indicated the presence of a functional endothelium. […] When a stable precontraction was reached, a cumulative concentration-response curve to either of the vasorelaxant agents was obtained in the presence of a functional endothelium. Each arterial ring was exposed to only one combination of inhibitor and vasorelaxant. Moreover, the effect of the soluble guanylyl cyclase inhibitor ODQ (1-H-(1,2,4)-oxadiazol(4,3-a)quinoxalin-1-one) on vasorelaxation elicited by the compounds was examined preincubating the aortic rings with ODQ (10 μM) for 20 min.
Responses to relaxing agents are expressed as a percentage of residual contraction and plotted against concentration of test compound. EC50 values (where EC50 is the concentration producing 50% of the maximum relaxation to the test compound) were interpolated from these plots. During the experimental period, the plateau obtained with NA was stable without significant spontaneous loss of contraction in the aortic rings.
Furthermore, in experiments performed in the presence of ODQ (10 μM), the vasorelaxant responses to tested compounds were inhibited.

Data set [2] concerns spontaneously hypertensive rats (SHRs). Description: Antihypertensive activity in vivo in conscious spontaneously hypertensive rats. As to conditions: SHR, 10 mpk po single dose, delta vs baseline, telemetry (EXP 3174: tail-cuff method). More on the design: species or system rat. As to the method:
The ability of the compounds of the invention to decrease blood pressure was evaluated in conscious spontaneously hypertensive rats (SHRs). SHRs (250-300 g) received a single oral dose of EXP 3174 or the corresponding nitroderivative. Systolic blood pressure (SBP) and heart rate were monitored by telemetry for 24 hours after dosing. SBP was evaluated before (baseline) and after (i.e. 6, 24 hours) treatment by oral administration of the compounds. The data were processed both as the absolute value or as a delta between the absolute value and its own baseline.
The Dataquest IV telemetry system (Data Sciences International) was used for measurement of systolic pressure, diastolic pressure, mean arterial pressure, heart rate, and motor activity. The monitoring system consists of a transmitter (radio frequency transducer model TA11PA), receiver panel, consolidation matrix, and personal computer with accompanying software. Before the device was implanted, calibrations were verified to be accurate within ±3 mmHg. Rats were anesthetized with ketamine/xylazine/acepromazine, and the flexible catheter of the transmitter was surgically secured in the abdominal aorta just below the renal arteries. The transmitter was sutured subcutaneously. Rats were housed in individual cages after the operation. Each cage was placed over the receiver panel that was connected to the personal computer for data acquisition. The rats were unrestrained and free to move within their cages. Hemodynamic data were sampled every 2 minutes for 10 seconds.

Data set [3] is described as follows: Solubility test in PEG 400/H2O 7/3. It counts as physicochemical. As to conditions: PEG 400/H2O 7/3, aqueous with cosolvent or surfactant or cyclodextrin, thermodynamic from solid; PEG400/H2O 70:30, 5.0 mg in 1 ml, mixed 1 hour, filtered; read-out: Solubility PEG400/H2O 70:30 (mg/ml) target 5 mg/ml. As to the method:
The solubility of the tested compounds in PEG 400/H2O 7/3 was evaluated using a standard curve constructed of six calibration points by plotting the peak areas of the compounds of the invention versus the concentration.
Test solution: 5.0 mg of the nitroderivative were dissolved in 0.7 ml of PEG 400 in a glass volumetric flask and 0.3 ml of water were added. The solution was mixed for 1 hour and filtered through 0.45 μm Acrodisc filter.

Converted amounts (≈) assume the structure as drawn.

Consider `CCCCc1nc(Cl)c(C(=O)N[C@@H](CCCNC(=N)N)C(=O)OCCCCO[N+](=O)[O-])n1Cc1ccc(-c2ccccc2-c2nn[nH]n2)cc1` [EX. 13, (S)-4-(nitrooxy)butyl 2-(1-((2′-(2H-tetrazol-5-yl)biphenyl-4-yl)methyl)-2-butyl-4-chloro-1H-imidazole-5-carboxamido)-5-guanidinopentanoate], for which the concentration for a half-maximal effect (EC50) in data set [1] is 30.6 ± 4.7 µM.

For `CCCCc1nc(Cl)c(C(=O)NCC(=O)NCCCCO[N+](=O)[O-])n1Cc1ccc(-c2ccccc2-c2nnn[nH]2)cc1` [EX. 11, 4-(2-(1-((2′-(1H-tetrazol-5-yl)biphenyl-4-yl)methyl)-2-butyl-4-chloro-1H-imidazole-5-carboxamido)acetamido)butyl nitrate], in data set [1], the concentration for a half-maximal effect (EC50) was found to be 38.7 ± 5.3 µM. For the same compound, in data set [2], the “Δ Systolic blood pressure (mmHg) 6 hrs” value is given as −6 mmHg and the “Δ Systolic blood pressure (mmHg) 24 hrs” value is reported as −17 mmHg. Also, in data set [3], the solubility at 1 h came to 4.6 mg/mL.

`CCCCc1nc(Cl)c(C(=O)N2CCC[C@H]2C(=O)OCCCCO[N+](=O)[O-])n1Cc1ccc(-c2ccccc2-c2nn[nH]n2)cc1` [EX. 7, (S)-4-(nitrooxy)butyl 1-(1-((2′-(2H-tetrazol-5-yl)biphenyl-4-yl)methyl)-2-butyl-4-chloro-1H-imidazole-5-carbonyl)pyrrolidine-2-carboxylate]: in data set [1], the 50% effective concentration (EC50) is 7.1 ± 1.9 µM. Also, in data set [3], the solubility at 1 h is over 5 mg/mL.

As to `CCCCc1nc(Cl)c(C(=O)N[C@@H](CC(=O)OCCCCO[N+](=O)[O-])C(=O)OCCCCO[N+](=O)[O-])n1Cc1ccc(-c2ccccc2-c2nn[nH]n2)cc1` [EX. 8, (S)-bis(4-(nitrooxy)butyl) 2-(1-((2′-(2H-tetrazol-5-yl)biphenyl-4-yl)methyl)-2-butyl-4-chloro-1H-imidazole-5-carboxamido)succinate], the EC50 in data set [1] is 10.4 ± 2.5 µM.

As to `CCCCc1nc(Cl)c(C(=O)NCC(=O)OCc2ccc(CO[N+](=O)[O-])cc2)n1Cc1ccc(-c2ccccc2-c2nnn[nH]2)cc1` [(46), 4-(nitrooxymethyl)benzyl 2-(1-((2′-(2H-tetrazol-5-yl)biphenyl-4-yl)methyl)-2-butyl-4-chloro-1H-imidazole-5-carboxamido)acetate], the solubility at 1 h in data set [3] was 5.07 mg/mL (≈ 7.69 mM).

Regarding `CCCCc1nc(Cl)c(COC(=O)N[C@H](COC(=O)CCCO[N+](=O)[O-])Cc2ccccc2)n1Cc1ccc(-c2ccccc2-c2nnn[nH]2)cc1` [EX. 2, (S)-2-(((1-((2′-(1H-tetrazol-5-yl)biphenyl-4-yl)methyl)-2-butyl-4-chloro-1H-imidazol-5-yl)methoxy)carbonylamino)-3-phenylpropyl 4-(nitrooxy)butanoate], in data set [1], the 50% effective concentration (EC50) is 40.1 ± 2.7 µM. For the same compound, the solubility at 1 h in data set [3] was over 5 mg/mL.

Regarding `CCCCc1nc(Cl)c(C(=O)NCC(=O)OCCCCO[N+](=O)[O-])n1Cc1ccc(-c2ccccc2-c2nnn[nH]2)cc1` [EX. 5, 4-(Nitrooxy)butyl 2-(1-((2′-(1H-tetrazol-5-yl)biphenyl-4-yl)methyl)-2-butyl-4-chloro-1H-imidazole-5-carboxamido)acetate], the half-maximal effective concentration (EC50) in data set [1] was 9.2 ± 2.5 µM. In data set [2], the “Δ Systolic blood pressure (mmHg) 6 hrs” value is reported as −7 mmHg and the “Δ Systolic blood pressure (mmHg) 24 hrs” value is on record as −11 mmHg. In addition, the solubility at 1 h in data set [3] is 4.2 mg/mL (≈ 6.87 mM).

On to `CCCCc1nc(Cl)c(CO)n1Cc1ccc(-c2ccccc2-c2nn[nH]n2)cc1` [Losartan, reference compound], for which the “EC50 (μM) ± sem” value in data set [1] was “no effect”.

For `CCCCc1nc(Cl)c(C(=O)N[C@@H](Cc2ccccc2)C(=O)OCCCCC(CO[N+](=O)[O-])O[N+](=O)[O-])n1Cc1ccc(-c2ccccc2-c2nnn[nH]2)cc1` (stereo in doubt) [EX. 9, (S)-(5,6-bis(nitrooxy)hexyl) 2-(1-((2′-(1H-tetrazol-5-yl)biphenyl-4-yl)methyl)-2-butyl-4-chloro-1H-imidazole-5-carboxamido)-3-phenylpropanoate], the EC50 in data set [1] turned out to be 3.4 ± 0.8 µM. Also, the solubility at 1 h in data set [3] amounted to 4.9 mg/mL (≈ 6.2 mM).

On to `CCOc1nc2cccc(C(=O)O)c2n1Cc1ccc(-c2ccccc2-c2nnn[nH]2)cc1` [Candesartan, reference compound], for which the “EC50 (μM) ± sem” value in data set [1] is recorded as “no effect”.

As to `CCCCc1nc(Cl)c(COC(=O)NCCOC(=O)CCCO[N+](=O)[O-])n1Cc1ccc(-c2ccccc2-c2nnn[nH]2)cc1` [EX. 1, 2-(((1-((2′-(1H-tetrazol-5-yl)biphenyl-4-yl)methyl)-2-butyl-4-chloro-1H-imidazol-5-yl)methoxy)carbonylamino)ethyl 4-(nitrooxy)butanoate], the 50% effective concentration (EC50) in data set [1] turned out to be 23.6 ± 3.9 µM. Besides, in data set [3], the solubility at 1 h is 4 mg/mL (≈ 6.24 mM).

As to `CCCCc1nc(Cl)c(C(=O)N[C@@H](CCC(=O)OCCCCO[N+](=O)[O-])C(=O)OCCCCO[N+](=O)[O-])n1Cc1ccc(-c2ccccc2-c2nn[nH]n2)cc1` [EX. 10], the EC50 in data set [1] was 5.4 ± 1.8 µM. Besides, in data set [2], the “Δ Systolic blood pressure (mmHg) 6 hrs” value is reported as −6 mmHg and the “Δ Systolic blood pressure (mmHg) 24 hrs” value is −11 mmHg.

With `CCCCc1nc(Cl)c(COC(=O)N[C@@H](CCCCN)C(=O)OCCCCO[N+](=O)[O-])n1Cc1ccc(-c2ccccc2-c2nnn[nH]2)cc1` [EX. 4, 4-(nitrooxy)butyl 2-(((1-((2′-(1H-tetrazol-5-yl)biphenyl-4-yl)methyl)-2-butyl-4-chloro-1H-imidazol-5-yl)methoxy)carbonylamino)-6-aminohexanoate], in data set [1], the 50% effective concentration (EC50) was 46 ± 7.2 µM.

As for `CCCCc1nc(Cl)c(C(=O)N[C@@H](Cc2ccccc2)C(=O)OCCCCO[N+](=O)[O-])n1Cc1ccc(-c2ccccc2-c2nnn[nH]2)cc1` [EX. 6], the EC50 in data set [1] was found to be 14.2 ± 8 µM. Besides, in data set [2], the “Δ Systolic blood pressure (mmHg) 6 hrs” value is recorded as −12 mmHg and the “Δ Systolic blood pressure (mmHg) 24 hrs” value is −13 mmHg. For the same compound, the solubility at 1 h in data set [3] was over 5 mg/mL.

For `CCCCc1nc(Cl)c(C(=O)O)n1Cc1ccc(-c2ccccc2-c2nn[nH]n2)cc1` [EXP 3174, 2-butyl-4-chloro-1-{[2′-(1H-tetrazol-5-yl)biphenyl-4-yl]methyl}-1H-imidazole-5-carboxylic acid, reference compound], the “EC50 (μM) ± sem” value in data set [1] is recorded as “no effect”. Further, in data set [2], the “Δ Systolic blood pressure (mmHg) 6 hrs” value is listed as −5 mmHg and the “Δ Systolic blood pressure (mmHg) 24 hrs” value worked out at 2 mmHg.

As to `CCCCc1nc(Cl)c(COC(=O)NCC(=O)OCCCCO[N+](=O)[O-])n1Cc1ccc(-c2ccccc2-c2nnn[nH]2)cc1` [EX. 3, 4-(nitrooxy)butyl 2-(((1-((2′-(1H-tetrazol-5-yl)biphenyl-4-yl)methyl)-2-butyl-4-chloro-1H-imidazol-5-yl)methoxy)carbonylamino)acetate], the concentration giving a half-maximal response (EC50) in data set [1] amounted to 9.2 ± 4.1 µM. Besides, the solubility at 1 h in data set [3] was over 5 mg/mL.

By EC50 is commonly meant the concentration giving half of the maximal effect.
